The values below come from patent US20050271676A1, “Inducing cellular immune responses to human immunodeficiency virus-1 using peptide and nucleic acid compositions” (Epimmune Inc., priority 1993, published 2005).

The target of test [1] is T1, HLA-B*0702 (Homo sapiens, UniProt P01889).
T1 construct: endogenous in cells; host or cells: GM3107
The test is described as follows: purified HLA class I binding assay, B*0702.

The target in test [2] is HLA-B*5401 (Homo sapiens, UniProt P01889, A329T/C349S/D138N/D201E/E176V/E187T/E204Q/E69G/I76V/K202T/L119W/R155S/R180L/S121T/S35A/S48A/V127L/V306I/V36M/Y140L). The test is described as follows: biochemical.
Test [3] deals with HLA-B*3501 (Homo sapiens, UniProt P01889, A329T/A93T/A95T/C349S/D201E/D98Y/E176V/E187L/E204Q/E69T/I218V/K202T/L119I/Q94N/R155S/R180L/S121R/S35A/S48A/T118I/V127L/V306I/V36M/Y140S/Y91F). In words: purified HLA class I binding assay, B*3501.
Test [4] has as its target HLA-B*5301 (Homo sapiens, UniProt P01889, A329T/A93T/A95T/C349S/D201E/D98Y/E176V/E187L/E204Q/E69T/G107R/I218V/K202T/L105A/L119I/N104I/Q94N/R106L/R155S/R180L/S101N/S121R/S35A/S48A/T118I/V127L/V306I/V36M/Y140S/Y91F). The test is described as follows: purified HLA class I binding assay, B*5301.
Test [5] deals with T2, HLA-DRB1*0401 (DR4w4) (Homo sapiens, UniProt P01903+P01911, A100K/A169T/F76Y/I96L/K127E/L162R/M171V/N62H/P40V/Q125Y/R42H/S133A/S149N/S66Y/V115G/V209L/W38E).
T2 construct: endogenous in cells; host or cells: Preiss
T2 sequence (P01903 26-254 partner, other chains not shown): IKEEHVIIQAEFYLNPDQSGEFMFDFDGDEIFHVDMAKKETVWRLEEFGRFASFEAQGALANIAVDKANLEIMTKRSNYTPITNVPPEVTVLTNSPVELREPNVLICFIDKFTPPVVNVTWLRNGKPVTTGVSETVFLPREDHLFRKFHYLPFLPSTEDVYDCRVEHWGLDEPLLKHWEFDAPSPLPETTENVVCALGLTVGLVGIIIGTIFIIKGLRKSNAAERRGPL
In words: purified HLA class II binding assay, DRB1*0401 (DR4w4).

Test [6] has as its target T3, HLA-DRB1*0901 (DR9) (Homo sapiens, UniProt P01903+P01911, A100R/A103E/D57H/D86V/F55Y/F60I/F76Y/I96F/K127E/L162R/M171V/P40D/Q125H/Q99R/R33Q/R42F/S133A/S66N/T210M/V115G/W38K/Y107V/Y59G/Y89S).
T3 construct: endogenous in cells
The test is described as follows: biochemical. Format: binding.

The target of test [7] is T4, HLA-DRB1*0802 (DR8w2) (Homo sapiens, UniProt P01903+P01911, A100R/A103L/A169T/F76Y/H45Y/I96F/K41T/L162R/M171V/P40S/Q125H/Q178H/Q39Y/Q99D/R218S/R42G/S66Y/V115G/W38E).
T4 construct: endogenous in cells
The test is described as follows: biochemical. It is filed as binding.

In test [8] the target is T5, HLA-DRB1*0701 (DR7) (Homo sapiens, UniProt P01903+P01911, A100R/A102G/A103Q/D57E/D86V/E43K/F76Y/K127E/L162R/M171V/P40G/Q125H/Q99D/R33Q/R42Y/R54Q/S133A/S66F/T210M/V115G/Y107V/Y59L/Y89S).
T5 construct: endogenous in cells; host or cells: Pitout
In words: biochemical. Format: binding.

Test [9] concerns the target T6, HLA-DRB1*1101 (DR5w11) (Homo sapiens, UniProt P01903+P01911, A100R/A169T/A87E/I96F/K41T/L162R/M171V/P40S/Q125H/Q178H/Q39Y/Q99D/R42S/S66Y/T262R/V115G/W38E).
T6 construct: endogenous in cells
In words: biochemical. Format: binding.

Test [10] has as its target T7, HLA-DRB1*1201 (DR5w12) (Homo sapiens, UniProt P01903+P01911, A100R/A169T/D57E/D86V/F55L/H45Y/K41T/L162R/M171V/P40S/Q125H/Q178H/Q39Y/Q99D/R42G/S66L/T262R/V114A/V67L/W38E/Y59H/Y61H/Y89S).
T7 construct: endogenous in cells
The test is described as follows: purified HLA class II binding assay, DRB1*1201 (DR5w12).

Test [11] has as its target T8, HLA-DRB1*0301 (DR3) (Homo sapiens, UniProt P01903+P01911, A100K/A102G/A103R/A169T/F55Y/I96L/K41T/L162R/M171V/P40S/Q125H/Q178H/Q39Y/R42S/S66N/T106N/T262R/W38E/Y61H).
T8 construct: endogenous in cells; host or cells: MAT
In words: purified HLA class II binding assay, DRB1*0301 (DR3), pH 4.5.

The target in test [12] is HLA-DRB1*0405 (DR4w15) (Homo sapiens, UniProt P01903+P01911, A100R/A169T/D86S/F76Y/I96L/K127E/L162R/M171V/N62H/P40V/Q125Y/R42H/S133A/S149N/S66Y/V115G/V209L/W38E). The test is described as follows: purified HLA class II binding assay, DRB1*0405 (DR4w15).
Test [13] addresses T9, HLA-DRB1*1501 (DR2w2β1) (Homo sapiens, UniProt P01903+P01911).
T9 construct: expressed in transfected cells
The test is described as follows: purified HLA class II binding assay, DRB1*1501 (DR2w2β1).

Test [14] addresses HLA-DRB1*1302 (DR6w19) (Homo sapiens, UniProt P01903+P01911, A100E/A169T/K41T/L162R/M171V/P40S/Q125H/Q178H/Q39Y/Q99D/R42S/S66N/T262R/V115G/W38E/Y61H). The test is described as follows: purified HLA class II binding assay, DRB1*1302 (DR6w19).
Test [15] addresses HLA-B51 (B*5101) (Homo sapiens, UniProt P01889, A329T/A93T/A95T/C349S/D138N/D201E/D98Y/E187L/E204Q/E69T/G107R/I218V/K202T/L105A/L119W/N104I/Q94N/R106L/R155S/R180L/S101N/S121T/S35A/S48A/V306I/V36M/Y195H/Y91F). In words: purified HLA class I binding assay, B51 (B*5101).
The target of test [16] is HLA-A*0101 (Homo sapiens, UniProt P04439, A114D/A174V/A182V/D101N/D185E/E176A/E190D/L180R/Q94H/R68K/S129P/T187R/V100A/V91M/W191G). In words: biochemical. It is filed as binding.
The target of test [17] is T10, HLA-DRB5*0101 (DR2w2β2) (Homo sapiens, UniProt P01903+Q30154).
T10 construct: expressed in transfected cells
In words: biochemical. It is filed as binding.

Where [18] appears, read: HIV DR super motif peptides, unit not given.

No end group written: not given here. Where only a bound is given, the exact number is not on record here.

T8 sequence (P01903 26-254 partner, other chains not shown): as above
T6 sequence (P01903 26-254, other chains not shown): as the sequence (P01903 26-254 partner, other chains not shown) above

For orientation: IC50 means the concentration that inhibits the measured activity by half. Consider HPVHAGPIA [1292.13], for which the IC50 in test [1] came to 50 nM; in [2], 4.3 nM; in test [3], 11.6 nM; in test [4], 4430 nM.
For HSNWRAMASDFNLPP [Peptide 27.0364], the IC50 was 11 nM in test [5]; 872 nM in test [6]; 1960 nM in test [7]; 472 nM in [8]; 95 nM in test [9]; greater than 20000 nM in test [10]. For the same sequence, the IC50 was greater than 20000 nM in [11], 15 nM in test [12], greater than 20000 nM in [13] and 4370 nM in test [14].
IPYNPQSQGVV [1296.03]: the 50% inhibitory concentration (IC50) in [15] amounted to 120 nM; in test [2], 66.7 nM; in [3], 72000 nM; in [4], 46500 nM.
For the sequence LVAVIIVASGY, in [16], the “A*0101 (binding affinity ratio)” value came to 0.0390 and the “A*0101 (binding information)” value was 0.0390.
QKEPPFLWMG: the “A*0101 (binding affinity ratio)” value in [16] is recorded as 0.0004.
For QKQITKIQNFRVYYR [Peptide 27.0377], the IC50 in [6] is 577 nM; in test [7] it was 75 nM; in test [8] it was 25 nM; in [9], 53 nM; in test [10], 124 nM; in test [11], greater than 20000 nM. Further, the IC50 in [12] was 49 nM; in test [17], 80 nM; in test [13] it was 3.4 nM; in test [14] it was 25 nM.
In test [5] (setting [18]), QQHLLQLTVWGTKQL gave a DR4w4 binding of 0.0330. The same sequence registered a DR9 binding in [6] of 0.5100. This sequence also showed a DR8w2 binding in test [7] of 0.0210. The sequence also came in with a DR7 binding in [8] of 0.3900. The sequence further showed a DR5w11 binding in test [9] of 0.0036. This sequence came in with a DR5w12 binding in [10] (setting [18]) of 0.4900. This sequence also showed a DR3 binding in test [11] (setting [18]) of −0.0043. The sequence further returned a DR4w15 binding in test [12] (setting [18]) of 0.2700. Besides, in [17], the DR2w2β2 binding is 0.0580. Further, in [13] (setting [18]), the “DR2 wβ1 binding” value is 0.7500. In addition, in test [14] (setting [18]), the DR6w19 binding came out at 0.0180.
In the case of VTVLDVGDAY [Peptide 1069.26], half-maximal inhibition in [16] (IC50) required 439 nM.
